Bounds are passed on as bounds.

Assay [1] deals with T1, Alpha-2A adrenergic receptor (Homo sapiens, UniProt P08913).
T1 sequence (P08913 whole entry): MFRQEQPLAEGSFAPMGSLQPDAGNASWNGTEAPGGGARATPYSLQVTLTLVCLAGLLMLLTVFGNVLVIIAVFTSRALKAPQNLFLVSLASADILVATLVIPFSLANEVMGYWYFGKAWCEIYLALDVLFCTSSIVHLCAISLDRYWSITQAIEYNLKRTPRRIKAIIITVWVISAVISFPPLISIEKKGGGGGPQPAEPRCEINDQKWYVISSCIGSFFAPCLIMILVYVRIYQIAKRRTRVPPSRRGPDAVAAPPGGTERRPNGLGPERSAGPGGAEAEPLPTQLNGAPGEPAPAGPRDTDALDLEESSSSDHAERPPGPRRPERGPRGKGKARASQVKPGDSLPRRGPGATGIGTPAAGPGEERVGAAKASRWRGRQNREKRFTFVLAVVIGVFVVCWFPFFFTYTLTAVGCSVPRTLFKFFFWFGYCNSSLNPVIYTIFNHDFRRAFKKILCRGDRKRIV
It is filed as functional, cell-based.

The target of assay [2] is T2, Prostaglandin G/H synthase 1 (Rattus norvegicus, UniProt Q63921).
T2 sequence (Q63921 whole entry): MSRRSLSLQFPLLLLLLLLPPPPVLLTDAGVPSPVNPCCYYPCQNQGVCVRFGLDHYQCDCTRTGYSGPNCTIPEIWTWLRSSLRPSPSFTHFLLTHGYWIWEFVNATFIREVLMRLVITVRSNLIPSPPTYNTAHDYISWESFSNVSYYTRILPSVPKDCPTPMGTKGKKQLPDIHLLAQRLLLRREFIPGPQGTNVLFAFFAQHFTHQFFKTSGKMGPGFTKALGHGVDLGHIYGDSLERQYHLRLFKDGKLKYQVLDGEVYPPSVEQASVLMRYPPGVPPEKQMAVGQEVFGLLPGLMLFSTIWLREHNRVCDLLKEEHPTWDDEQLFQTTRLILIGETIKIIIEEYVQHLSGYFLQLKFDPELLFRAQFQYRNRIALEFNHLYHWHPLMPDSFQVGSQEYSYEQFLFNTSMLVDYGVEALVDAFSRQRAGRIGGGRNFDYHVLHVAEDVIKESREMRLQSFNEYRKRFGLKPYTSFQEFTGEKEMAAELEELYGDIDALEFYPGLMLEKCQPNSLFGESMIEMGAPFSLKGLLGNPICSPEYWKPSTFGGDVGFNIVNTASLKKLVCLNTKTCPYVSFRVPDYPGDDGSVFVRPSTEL
It is filed as functional.

The target of assay [3] is T3, B2 bradykinin receptor (Homo sapiens, UniProt P30411).
T3 sequence (P30411 whole entry): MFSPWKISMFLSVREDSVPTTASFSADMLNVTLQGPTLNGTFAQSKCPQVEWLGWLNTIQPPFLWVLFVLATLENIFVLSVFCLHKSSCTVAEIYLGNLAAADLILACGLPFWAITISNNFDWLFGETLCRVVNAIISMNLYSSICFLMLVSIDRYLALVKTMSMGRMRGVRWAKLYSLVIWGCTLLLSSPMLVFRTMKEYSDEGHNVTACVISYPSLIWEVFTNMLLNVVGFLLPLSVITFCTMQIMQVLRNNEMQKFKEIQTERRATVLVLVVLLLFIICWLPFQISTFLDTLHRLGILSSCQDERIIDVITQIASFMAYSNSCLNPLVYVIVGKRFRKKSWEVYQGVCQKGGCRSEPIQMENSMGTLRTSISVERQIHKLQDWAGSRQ

Assay [4] concerns the target T4, Muscarinic acetylcholine receptor M2 (Homo sapiens, UniProt P08172).
T4 sequence (P08172 whole entry): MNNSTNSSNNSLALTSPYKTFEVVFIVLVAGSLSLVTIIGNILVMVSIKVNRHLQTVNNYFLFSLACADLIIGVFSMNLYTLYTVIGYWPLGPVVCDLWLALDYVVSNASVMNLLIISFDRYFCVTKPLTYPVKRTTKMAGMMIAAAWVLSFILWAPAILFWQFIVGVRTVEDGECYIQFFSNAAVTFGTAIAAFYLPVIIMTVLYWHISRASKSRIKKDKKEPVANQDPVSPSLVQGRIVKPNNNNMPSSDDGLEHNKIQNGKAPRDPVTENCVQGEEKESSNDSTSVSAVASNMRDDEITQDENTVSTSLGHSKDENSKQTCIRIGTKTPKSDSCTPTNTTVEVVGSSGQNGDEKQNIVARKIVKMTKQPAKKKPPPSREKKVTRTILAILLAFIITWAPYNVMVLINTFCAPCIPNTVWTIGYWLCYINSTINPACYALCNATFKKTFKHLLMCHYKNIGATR
It counts as functional, cell-based.

Assay [5] has as its target Vasopressin V2 receptor (Homo sapiens, UniProt P30518).
Assay [6] deals with T5, Equilibrative nucleoside transporter 1 (Homo sapiens, UniProt Q99808).
T5 sequence (Q99808 whole entry): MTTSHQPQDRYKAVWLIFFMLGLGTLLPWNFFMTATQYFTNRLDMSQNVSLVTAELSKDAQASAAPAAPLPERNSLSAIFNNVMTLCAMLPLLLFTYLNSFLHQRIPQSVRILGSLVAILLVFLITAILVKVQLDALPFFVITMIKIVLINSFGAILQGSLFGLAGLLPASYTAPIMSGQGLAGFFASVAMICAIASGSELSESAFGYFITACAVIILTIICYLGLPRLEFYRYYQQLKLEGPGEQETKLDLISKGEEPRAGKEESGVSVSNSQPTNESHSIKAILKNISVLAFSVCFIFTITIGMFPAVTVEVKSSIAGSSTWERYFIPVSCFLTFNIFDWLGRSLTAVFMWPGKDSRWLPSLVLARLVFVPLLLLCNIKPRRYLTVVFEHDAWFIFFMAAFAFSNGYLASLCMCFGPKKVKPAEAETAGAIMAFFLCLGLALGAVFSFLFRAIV

The target in assay [7] is Beta-2 adrenergic receptor (Homo sapiens, UniProt P07550).
The target in assay [8] is T4, Muscarinic acetylcholine receptor M2. It is filed as functional, cell-based. The source holds these as a separate data set.
Assay [9] deals with Gamma-aminobutyric acid receptor subunit alpha-1 (Rattus norvegicus, UniProt P62813).
For assay [10], the target named is 5-hydroxytryptamine receptor 2B (Homo sapiens, UniProt P41595). It is filed as functional, cell-based.
Assay [11] addresses Adenosine receptor A2a (Homo sapiens, UniProt P29274).
The target in assay [12] is Histamine H1 receptor (Homo sapiens, UniProt P35367).
Further: assay procedure not described here.

Sequence of Vasopressin V2 receptor (P30518 whole entry): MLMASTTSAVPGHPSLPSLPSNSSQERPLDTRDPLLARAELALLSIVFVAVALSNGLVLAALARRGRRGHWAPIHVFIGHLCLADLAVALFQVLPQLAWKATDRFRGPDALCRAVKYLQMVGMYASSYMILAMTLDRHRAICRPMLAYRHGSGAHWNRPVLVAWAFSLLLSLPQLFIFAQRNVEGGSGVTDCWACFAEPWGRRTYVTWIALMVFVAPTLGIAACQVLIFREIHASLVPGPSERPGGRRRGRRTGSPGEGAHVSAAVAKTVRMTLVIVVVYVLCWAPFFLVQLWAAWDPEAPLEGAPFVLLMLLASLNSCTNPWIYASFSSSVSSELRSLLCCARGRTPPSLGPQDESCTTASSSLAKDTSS
Sequence of Adenosine receptor A2a (P29274 whole entry): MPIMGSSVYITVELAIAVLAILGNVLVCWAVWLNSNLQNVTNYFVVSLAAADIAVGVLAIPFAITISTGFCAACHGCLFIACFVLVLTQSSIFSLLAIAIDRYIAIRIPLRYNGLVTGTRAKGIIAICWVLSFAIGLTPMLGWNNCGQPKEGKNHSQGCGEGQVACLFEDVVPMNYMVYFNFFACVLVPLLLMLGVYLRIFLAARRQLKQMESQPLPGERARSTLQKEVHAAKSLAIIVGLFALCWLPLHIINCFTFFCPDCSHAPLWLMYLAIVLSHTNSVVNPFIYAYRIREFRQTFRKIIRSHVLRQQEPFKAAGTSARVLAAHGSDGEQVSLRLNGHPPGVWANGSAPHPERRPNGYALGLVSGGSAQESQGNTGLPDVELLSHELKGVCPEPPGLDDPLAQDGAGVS
Sequence of 5-hydroxytryptamine receptor 2B (P41595 whole entry): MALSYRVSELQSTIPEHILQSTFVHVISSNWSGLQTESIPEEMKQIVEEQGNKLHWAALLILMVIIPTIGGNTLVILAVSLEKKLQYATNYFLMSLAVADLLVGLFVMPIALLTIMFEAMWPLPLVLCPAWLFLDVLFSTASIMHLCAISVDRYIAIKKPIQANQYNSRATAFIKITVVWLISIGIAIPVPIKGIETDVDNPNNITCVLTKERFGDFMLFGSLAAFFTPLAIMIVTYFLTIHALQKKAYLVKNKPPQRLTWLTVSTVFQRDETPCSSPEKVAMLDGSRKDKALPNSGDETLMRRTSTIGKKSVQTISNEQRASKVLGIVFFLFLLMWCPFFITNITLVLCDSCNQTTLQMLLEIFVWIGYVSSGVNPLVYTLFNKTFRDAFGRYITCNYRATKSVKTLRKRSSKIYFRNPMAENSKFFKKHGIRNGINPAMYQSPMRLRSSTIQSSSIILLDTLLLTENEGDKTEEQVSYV
Sequence of Gamma-aminobutyric acid receptor subunit alpha-1 (P62813 whole entry): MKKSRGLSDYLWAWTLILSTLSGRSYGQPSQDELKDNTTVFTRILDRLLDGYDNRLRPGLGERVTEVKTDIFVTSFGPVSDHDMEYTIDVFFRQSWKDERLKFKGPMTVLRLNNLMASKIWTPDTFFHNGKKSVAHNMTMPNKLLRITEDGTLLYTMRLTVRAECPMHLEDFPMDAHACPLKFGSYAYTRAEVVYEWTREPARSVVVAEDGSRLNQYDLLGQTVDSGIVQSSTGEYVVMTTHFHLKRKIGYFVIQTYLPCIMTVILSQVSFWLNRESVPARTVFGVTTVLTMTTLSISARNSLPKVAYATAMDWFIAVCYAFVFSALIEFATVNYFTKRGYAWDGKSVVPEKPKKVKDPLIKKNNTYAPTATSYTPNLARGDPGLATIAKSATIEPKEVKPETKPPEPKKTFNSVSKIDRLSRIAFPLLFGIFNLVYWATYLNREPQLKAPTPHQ
Sequence of Beta-2 adrenergic receptor (P07550 whole entry): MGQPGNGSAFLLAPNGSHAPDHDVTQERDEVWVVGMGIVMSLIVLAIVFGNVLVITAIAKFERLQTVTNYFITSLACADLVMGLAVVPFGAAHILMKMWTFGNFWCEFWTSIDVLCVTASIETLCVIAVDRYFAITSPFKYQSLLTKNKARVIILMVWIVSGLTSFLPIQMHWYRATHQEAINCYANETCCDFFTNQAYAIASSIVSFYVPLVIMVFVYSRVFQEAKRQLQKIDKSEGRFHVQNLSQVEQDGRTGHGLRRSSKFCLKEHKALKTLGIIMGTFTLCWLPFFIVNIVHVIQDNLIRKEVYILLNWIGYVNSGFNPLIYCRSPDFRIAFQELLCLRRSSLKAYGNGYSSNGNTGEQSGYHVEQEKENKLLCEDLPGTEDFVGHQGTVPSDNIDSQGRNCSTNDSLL
Sequence of Histamine H1 receptor (P35367 whole entry): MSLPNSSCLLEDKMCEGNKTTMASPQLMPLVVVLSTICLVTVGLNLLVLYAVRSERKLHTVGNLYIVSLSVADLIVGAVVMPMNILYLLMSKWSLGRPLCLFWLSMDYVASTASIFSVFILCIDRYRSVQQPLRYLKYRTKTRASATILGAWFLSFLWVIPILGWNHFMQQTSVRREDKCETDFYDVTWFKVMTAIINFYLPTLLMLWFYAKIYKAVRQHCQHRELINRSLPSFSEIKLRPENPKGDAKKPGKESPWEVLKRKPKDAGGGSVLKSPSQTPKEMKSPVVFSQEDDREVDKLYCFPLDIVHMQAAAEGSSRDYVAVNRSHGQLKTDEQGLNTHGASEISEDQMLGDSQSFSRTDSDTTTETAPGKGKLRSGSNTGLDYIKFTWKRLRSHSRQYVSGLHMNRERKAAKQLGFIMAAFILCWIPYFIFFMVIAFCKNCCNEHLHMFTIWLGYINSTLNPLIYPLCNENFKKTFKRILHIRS

For `CC(=O)O[C@@]12CO[C@@H]1C[C@H](O)[C@@]1(C)C(=O)[C@H](O)C3=C(C)[C@@H](OC(=O)[C@H](O)[C@@H](NC(=O)OC(C)(C)C)c4ccccc4)C[C@@](O)([C@@H](OC(=O)c4ccccc4)[C@H]21)C3(C)C` [DOCETAXEL ANHYDROUS], the AC50 in assay [1], in assay [2], in assay [3], in assay [4], in assay [5] and in assay [6] was > 30 µM each time. Also, the AC50 in assay [7], in assay [8], in assay [9], in assay [10] and in assay [11] was > 30 µM in each case.
As to `CN[C@@H](C)[C@H](O)c1ccccc1` [EPHEDRINE], the AC50 – broadly, the concentration giving half of the maximal activity seen – was > 10 µM in assay [1]; > 30 µM in assay [2]; > 30 µM in assay [3]; 17 µM in assay [4]; > 30 µM in [5]; > 30 µM in [6]. Moreover, the AC50 in [12] is > 10 µM; in assay [7] it was > 10 µM; in assay [8] it was > 10 µM; in [9], > 10 µM; in assay [10] it was > 10 µM; in assay [11], > 30 µM.
With `COc1c(N2CCNC(C)C2)c(F)cc2c(=O)c(C(=O)O)cn(C3CC3)c12` (stereo unspecified) [GATIFLOXACIN], the AC50 in assay [1], in assay [2], in assay [3], in assay [4], in assay [5] and in assay [6] was > 10 µM throughout. The half-maximal activity concentration (AC50) in [7], in assay [8], in assay [9], in assay [10] and in [11] was > 10 µM in each case.
Consider `COc1ccccc1OCC(O)COC(N)=O` (stereo unspecified) [METHOCARBAMOL], for which the AC50 in assay [1], in [2], in [3], in assay [4], in assay [5] and in [6] was > 10 µM each time. For the same compound, the AC50 in assay [7], in assay [8], in [9], in assay [10] and in assay [11] was > 10 µM throughout.
`C[C@]12CCC(=O)C=C1CC[C@@H]1[C@@H]2CC[C@@]2(C)[C@H]1CC[C@]2(C)O` [METHYLTESTOSTERONE]: the AC50 in assay [1], in assay [2], in assay [3], in assay [4], in assay [5] and in assay [6] was > 30 µM in each case. The AC50 in assay [7], in [8], in assay [9], in [10] and in assay [11] was > 30 µM throughout.
Turning to `NC(=O)C[S+]([O-])C(c1ccccc1)c1ccccc1` (stereo unspecified) [MODAFINIL], the AC50 was > 10 µM in assay [1]; > 30 µM in assay [2]; > 30 µM in [3]; > 10 µM in assay [4]; > 30 µM in assay [5]; > 30 µM in assay [6]. In addition, the AC50 is > 10 µM in assay [7]; > 10 µM in assay [8]; > 10 µM in [9]; > 10 µM in assay [10]; > 30 µM in assay [11].
With `CCN(CC)CCOC(=O)c1ccc(N)cc1` [PROCAINE], the AC50 in assay [1] was > 10 µM; in assay [2] it was > 30 µM; in [3], > 30 µM; in assay [4], > 10 µM; in [5] it was > 30 µM; in [6], > 30 µM. The AC50 is > 10 µM in assay [7]; > 10 µM in assay [8]; > 10 µM in [9]; > 10 µM in assay [10]; > 30 µM in [11].
On to `C#CCN(C)[C@H](C)Cc1ccccc1` [SELEGILINE], for which the AC50 in [1], in [2], in assay [3], in assay [4], in assay [5] and in [6] was > 10 µM each time. The AC50 in assay [7], in assay [8], in assay [9], in assay [10] and in assay [11] was > 10 µM each time.
In the case of `CN[C@@H]1[C@H](O)[C@H](NC)[C@H]2O[C@@]3(O)C(=O)C[C@@H](C)O[C@H]3O[C@@H]2[C@H]1O` [SPECTINOMYCIN], the AC50 in assay [1], in assay [2], in [3], in assay [4], in assay [5] and in [6] was > 10 µM throughout. The AC50 in assay [7] was > 10 µM; in assay [8], > 10 µM; in [9] it was > 10 µM; in [10], > 30 µM; in assay [11], > 10 µM.
Consider `CC[C@]1(O)C[C@@H]2CN(CCc3c([nH]c4ccccc34)[C@@](C(=O)OC)(c3cc4c(cc3OC)N(C)[C@H]3[C@@](O)(C(N)=O)[C@H](O)[C@]5(CC)C=CCN6CC[C@]43[C@@H]65)C2)C1` [VINDESINE], for which the AC50 in assay [1] was > 30 µM; in [2], 25 µM; in assay [3] it was > 30 µM; in assay [4], > 30 µM; in assay [5], > 30 µM; in assay [6] it was > 30 µM. Also, the AC50 in assay [7], in assay [8], in assay [9], in [10] and in [11] was > 30 µM each time.

The values above are taken from ChEMBL document CHEMBL5291721, “A preclinical secondary pharmacology resource illuminates target-adverse drug reaction associations of marketed drugs” (Nat Commun, 2023).
